According to the supplement of paper PMC3770661:
Structures can show the parent of a compound that is named as a salt. ± gives the uncertainty stated by the source.

System: HepG2 (L1.3 5'UTR promoter firefly luciferase reporter)
Assay: L1 promoter activity (FLuc/RLuc) relative to DMSO vehicle control (% of control); higher = stronger L1 promoter activation
Method: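 HepG2 cells in 96-well plates were cotransfected with pGL4.11-L1.3 5'UTR (firefly luciferase driven by the human L1.3 5'UTR promoter) and pGL4.74 (HSV-TK Renilla luciferase internal control), then treated with compound for 6 or 24 h. FLuc/RLuc ratio was normalised to the DMSO vehicle control (% of control); concentrations where RLuc fell below 50% of control were excluded (N.D.). Mean of at least two independent experiments in duplicate or quadruplicate.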

[1] = concentration (uM unless unit written): 125, treatment time: 6 h
[2] = concentration (uM unless unit written): 125, treatment time: 24 h
[3] = concentration (uM unless unit written): 50, treatment time: 6 h
[4] = concentration (uM unless unit written): 50, treatment time: 24 h
[5] = concentration (uM unless unit written): 500, treatment time: 6 h
[6] = concentration (uM unless unit written): 1000, treatment time: 6 h
[7] = concentration (uM unless unit written): 1, treatment time: 6 h
[8] = concentration (uM unless unit written): 1, treatment time: 24 h
[9] = concentration (uM unless unit written): 10, treatment time: 6 h
[10] = concentration (uM unless unit written): 10, treatment time: 24 h
[11] = concentration (uM unless unit written): 100, treatment time: 6 h
[12] = concentration (uM unless unit written): 100, treatment time: 24 h
[13] = concentration (uM unless unit written): 250, treatment time: 6 h
[14] = concentration (uM unless unit written): 250, treatment time: 24 h
[15] = concentration (uM unless unit written): 500, treatment time: 24 h
[16] = concentration (uM unless unit written): 25, treatment time: 6 h
[17] = concentration (uM unless unit written): 25, treatment time: 24 h
[18] = concentration (uM unless unit written): 3, treatment time: 6 h
[19] = concentration (uM unless unit written): 3, treatment time: 24 h
[20] = concentration (uM unless unit written): 6, treatment time: 6 h
[21] = concentration (uM unless unit written): 6, treatment time: 24 h
[22] = concentration (uM unless unit written): 2.5, treatment time: 6 h
[23] = concentration (uM unless unit written): 2.5, treatment time: 24 h
[24] = concentration (uM unless unit written): 2500, treatment time: 6 h
[25] = concentration (uM unless unit written): 5, treatment time: 6 h
[26] = concentration (uM unless unit written): 5, treatment time: 24 h

CCCCc1nc(Cl)c(CO)n1Cc1ccc(-c2ccccc2-c2nnn[nH]2)cc1 [Losartan]
L1 promoter activity (concentration (uM unless unit written): 15.625, treatment time: 6 h): 93.6 ± 6.2
L1 promoter activity (concentration (uM unless unit written): 15.625, treatment time: 24 h): 92.6 ± 10
L1 promoter activity (concentration (uM unless unit written): 31.25, treatment time: 6 h): 106 ± 7.8
L1 promoter activity (concentration (uM unless unit written): 31.25, treatment time: 24 h): 102 ± 10
L1 promoter activity (concentration (uM unless unit written): 62.5, treatment time: 6 h): 109 ± 8.7
L1 promoter activity (concentration (uM unless unit written): 62.5, treatment time: 24 h): 98.6 ± 11
L1 promoter activity [1]: 101 ± 10
L1 promoter activity [2]: 95.1 ± 7.4

Cc1cccc(Nc2ccccc2C(=O)O)c1C [Mefenamic acid]
L1 promoter activity [3]: 128 ± 8.3
L1 promoter activity [4]: 91 ± 5.5
L1 promoter activity [5]: 113 ± 19
L1 promoter activity [6]: 93.8 ± 13

CC1=CC(=O)c2ccccc2C1=O [Menadione]
L1 promoter activity (concentration (uM unless unit written): 17.5, treatment time: 6 h): 116 ± 11

O=C1NC(=S)NC(=O)C1C(=O)Nc1ccccc1 [Merbarone]
L1 promoter activity [7]: 112 ± 12
L1 promoter activity [8]: 113 ± 13
L1 promoter activity [9]: 140 ± 17
L1 promoter activity [10]: 147 ± 17
L1 promoter activity [3]: 171 ± 27
L1 promoter activity [4]: 219 ± 30
L1 promoter activity [11]: 182 ± 16
L1 promoter activity [12]: 198 ± 32

CN(C)CCN(Cc1cccs1)c1ccccn1 [Methapyrilene]
L1 promoter activity [13]: 97.7 ± 2.8
L1 promoter activity [14]: 101 ± 25
L1 promoter activity [5]: 86.6 ± 8.4
L1 promoter activity [6]: 72.8 ± 12

CN(Cc1cnc2nc(N)nc(N)c2n1)c1ccc(C(=O)N[C@@H](CCC(=O)O)C(=O)O)cc1 [Methotrexate]
L1 promoter activity [9]: 86.8 ± 9.6
L1 promoter activity [10]: 112 ± 36
L1 promoter activity [11]: 93.4 ± 13
L1 promoter activity [12]: 108 ± 48
L1 promoter activity (concentration (uM unless unit written): 200, treatment time: 6 h): 93.6 ± 12
L1 promoter activity (concentration (uM unless unit written): 200, treatment time: 24 h): 142 ± 41

COS(C)(=O)=O [Methyl methanesulfonate]
L1 promoter activity [1]: 113 ± 11
L1 promoter activity [2]: 90.8 ± 4.2
L1 promoter activity [13]: 107 ± 15
L1 promoter activity [14]: 88.2 ± 13
L1 promoter activity [5]: 100 ± 12
L1 promoter activity [15]: 83.2 ± 4.5

C[C@]12CCC(=O)C=C1CC[C@@H]1[C@@H]2CC[C@@]2(C)[C@H]1CC[C@]2(C)O [Methyltestosterone]
L1 promoter activity [16]: 94.7 ± 15
L1 promoter activity [17]: 73.9 ± 15
L1 promoter activity [3]: 108 ± 4.4
L1 promoter activity [4]: 74.5 ± 14
L1 promoter activity [11]: 98.5 ± 14
L1 promoter activity [12]: 85.3 ± 3.9

CC(C)(C(=O)c1cccnc1)c1cccnc1 [Metyrapone]
L1 promoter activity [1]: 121 ± 7.4
L1 promoter activity [2]: 111 ± 11
L1 promoter activity [13]: 142 ± 18
L1 promoter activity [14]: 121 ± 11
L1 promoter activity [5]: 127 ± 3.5
L1 promoter activity [15]: 135 ± 14

CC[C@H](C)C(=O)O[C@H]1CCC=C2C=C[C@H](C)[C@H](CC[C@@H]3C[C@@H](O)CC(=O)O3)[C@H]21 [Mevastatin]
L1 promoter activity [7]: 114 ± 22
L1 promoter activity [8]: 118 ± 31
L1 promoter activity [18]: 101 ± 24
L1 promoter activity [19]: 105 ± 12
L1 promoter activity [20]: 123 ± 43
L1 promoter activity [21]: 103 ± 18

CO[C@@]12[C@H](COC(N)=O)C3=C(C(=O)C(C)=C(N)C3=O)N1C[C@@H]1N[C@@H]12 [Mitomycin C]
L1 promoter activity [22]: 119 ± 25
L1 promoter activity [23]: 131 ± 10
L1 promoter activity [9]: 96.4 ± 11
L1 promoter activity [10]: 114 ± 25

COC(=O)C1=C(C)NC(C)=C(C(=O)OC)C1c1ccccc1[N+](=O)[O-] [Nifedipine]
L1 promoter activity [9]: 96.1 ± 10
L1 promoter activity [10]: 104 ± 8.8
L1 promoter activity [16]: 98.4 ± 2.3
L1 promoter activity [17]: 126 ± 5.6
L1 promoter activity [3]: 97.2 ± 12
L1 promoter activity [4]: 104 ± 7
L1 promoter activity [11]: 88.6 ± 24
L1 promoter activity [12]: 91.2 ± 2.6

CC[C@H]1/C=C/C=C/C[C@@H](C)[C@H](O)[C@@](C)(O)C(=O)[C@@H](C)[C@H](O)[C@@H](C)C(=O)[C@@H](C)[C@H](O)[C@@H](C)/C=C/C(=O)O[C@@H]2[C@H](C)[C@H](CC1)O[C@]1(CC[C@H](C)[C@H](C[C@@H](C)O)O1)[C@H]2C [Oligomycin]
L1 promoter activity (concentration (uM unless unit written): 0.75, treatment time: 6 h): 89.6 ± 5.8
L1 promoter activity (concentration (uM unless unit written): 0.75, treatment time: 24 h): 82.1 ± 19
L1 promoter activity (concentration (uM unless unit written): 1.5, treatment time: 6 h): 82.5 ± 15
L1 promoter activity (concentration (uM unless unit written): 1.5, treatment time: 24 h): 77.2 ± 1.9

CC(C)=CC(=O)C=C(C)C [Phorone]
L1 promoter activity [5]: 131 ± 16
L1 promoter activity [15]: 118 ± 21
L1 promoter activity [6]: 131 ± 6.7
L1 promoter activity (concentration (uM unless unit written): 1000, treatment time: 24 h): 118 ± 23

CC[C@H](C)C(=O)O[C@H]1C[C@H](O)C=C2C=C[C@H](C)[C@H](CC[C@@H](O)C[C@@H](O)CC(=O)O)[C@H]21 [Pravastatin]
L1 promoter activity [24]: 130 ± 8.2
L1 promoter activity (concentration (uM unless unit written): 2500, treatment time: 24 h): 102 ± 7.9

CC(=O)[C@H]1CC[C@H]2[C@@H]3CCC4=CC(=O)CC[C@]4(C)[C@H]3CC[C@]12C [Progesterone]
L1 promoter activity [16]: 101 ± 7.1
L1 promoter activity [17]: 81.7 ± 12
L1 promoter activity [3]: 90.4 ± 15
L1 promoter activity [4]: 67.8 ± 7.1
L1 promoter activity [11]: 73.7 ± 6.7

CC(CN1c2ccccc2Sc2ccccc21)N(C)C (configuration not stated) [Promethazine hydrochloride]
L1 promoter activity [3]: 73.9 ± 13

C=C(C)[C@H]1Cc2c(ccc3c2O[C@@H]2COc4cc(OC)c(OC)cc4[C@@H]2C3=O)O1 [Rotenone]
L1 promoter activity (concentration (uM unless unit written): 0.075, treatment time: 6 h): 113 ± 28
L1 promoter activity (concentration (uM unless unit written): 0.075, treatment time: 24 h): 90.8 ± 3.4
L1 promoter activity [9]: 97.8 ± 8.2
L1 promoter activity [3]: 93.6 ± 11

NC(=O)c1ccccc1O [Salicylamide]
L1 promoter activity (concentration (uM unless unit written): 1250, treatment time: 6 h): 146 ± 22
L1 promoter activity (concentration (uM unless unit written): 1250, treatment time: 24 h): 175 ± 16
L1 promoter activity [24]: 139 ± 9.1
L1 promoter activity (concentration (uM unless unit written): 5000, treatment time: 6 h): 151 ± 25

CCC(C)(C)C(=O)O[C@H]1C[C@@H](C)C=C2C=C[C@H](C)[C@H](CC[C@@H]3C[C@@H](O)CC(=O)O3)[C@H]21 [Simvastatin]
L1 promoter activity [7]: 94.1 ± 18
L1 promoter activity [8]: 100 ± 12
L1 promoter activity [18]: 93.1 ± 7.7
L1 promoter activity [19]: 117 ± 14
L1 promoter activity [20]: 108 ± 18
L1 promoter activity [21]: 107 ± 15

CC(=O)S[C@@H]1CC2=CC(=O)CC[C@]2(C)[C@H]2CC[C@@]3(C)[C@@H](CC[C@@]34CCC(=O)O4)[C@H]12 [Spironolactone]
L1 promoter activity [7]: 104 ± 9.8
L1 promoter activity [8]: 89.3 ± 3.8
L1 promoter activity [18]: 97.8 ± 9.3
L1 promoter activity [19]: 100 ± 8.9
L1 promoter activity (concentration (uM unless unit written): 30, treatment time: 6 h): 88.5 ± 9.3
L1 promoter activity (concentration (uM unless unit written): 30, treatment time: 24 h): 111 ± 12

CC1=C(CC(=O)O)c2cc(F)ccc2/C1=C\c1ccc([S+](C)[O-])cc1 (configuration not stated) [Sulindac]
L1 promoter activity [13]: 218 ± 44

CC(=O)O[C@H]1C(=O)[C@@]2(C)[C@H]([C@H](OC(=O)c3ccccc3)[C@]3(O)C[C@H](OC(=O)[C@H](O)[C@@H](NC(=O)c4ccccc4)c4ccccc4)C(C)=C1C3(C)C)[C@]1(OC(C)=O)CO[C@@H]1C[C@@H]2O [Taxol]
L1 promoter activity [25]: 104 ± 17
L1 promoter activity [26]: 86.9 ± 18
L1 promoter activity [9]: 123 ± 35
L1 promoter activity [10]: 81.9 ± 11
L1 promoter activity (concentration (uM unless unit written): 20, treatment time: 6 h): 96.8 ± 14
L1 promoter activity (concentration (uM unless unit written): 20, treatment time: 24 h): 76.3 ± 13

CCCc1nc2c(C)cc(-c3nc4ccccc4n3C)cc2n1Cc1ccc(-c2ccccc2C(=O)O)cc1 [Telmisartan]
L1 promoter activity (concentration (uM unless unit written): 1.25, treatment time: 6 h): 104 ± 11
L1 promoter activity (concentration (uM unless unit written): 1.25, treatment time: 24 h): 112 ± 8
L1 promoter activity [22]: 105 ± 8.6
L1 promoter activity [23]: 114 ± 9.7
L1 promoter activity [25]: 115 ± 3.5
L1 promoter activity [26]: 114 ± 9
L1 promoter activity [9]: 119 ± 15
L1 promoter activity [10]: 119 ± 3.6

Clc1ccccc1CN1CCc2sccc2C1 [Ticlopidine]
L1 promoter activity [9]: 117 ± 5.9
L1 promoter activity [10]: 124 ± 4.8
L1 promoter activity [16]: 107 ± 9.2
L1 promoter activity [17]: 104 ± 9.1
L1 promoter activity [3]: 96.2 ± 12
L1 promoter activity [4]: 113 ± 22
L1 promoter activity [11]: 97.5 ± 13
L1 promoter activity [12]: 129 ± 11

NS(=O)(=O)c1cc2c(cc1Cl)NC(C(Cl)Cl)NS2(=O)=O (configuration not stated) [Trichlormethiazide]
L1 promoter activity [11]: 103 ± 10
L1 promoter activity [12]: 66.9 ± 13
L1 promoter activity [13]: 108 ± 17
L1 promoter activity [14]: 59.6 ± 9.6
L1 promoter activity [5]: 102 ± 6.6
L1 promoter activity [6]: 99.7 ± 27
